Patent US8629173B2, “Solid forms comprising (+)-2-[1-(3-ethoxy-4-methoxyphenyl)-2-methylsulfonylethyl]-4-acetylaminoisoindoline-1,3-dione, compositions thereof, and uses thereof” (Celgene Corporation, priority 2002, dated 2014)

How the values were obtained:
[1] = tested on: LPS-induced TNF-α production from human PBMC; test: LPS-induced TNF-α production from human PBMC; assay type: cell-based; details: LPS 100 ng/ml, 18-20 hours
Method: Lipopolysaccharide (LPS) is an endotoxin produced by gram-negative bacteria such as E. coli which induces production of many pro-inflammatory cytokines, including TNF-α. In peripheral blood mononuclear cells (PBMC), the TNF-α produced in response to LPS is derived from monocytes, which comprise approximately 5-20% of the total PBMC. Compounds were tested for the ability to inhibit LPS-induced TNF-α production from human PBMC as previously described (Muller et al., 1996, J. Med. Chem., 39:3238). PBMC from normal donors were obtained by Ficoll Hypaque (Pharmacia, Piscataway, N.J., USA) density centrifugation. Cells were cultured in RPMI (Life Technologies, Grand Island, N.Y., USA) supplemented with 10% AB±human serum (Gemini Bio-products, Woodland, Calif., USA), 2 mM L-glutamine, 100 U/ml penicillin, and 100 μg/ml streptomycin (Life Technologies).
PBMC (2×10^5 cells) were plated in 96-well flat-bottom Costar tissue culture plates (Corning, N.Y., USA) in triplicate. Cells were stimulated with LPS (Sigma, St. Louis, Mo., USA) at 100 ng/ml in the absence or presence of compounds. Compounds (Celgene Corp., Warren, N.J., USA) were dissolved in DMSO (Sigma) and further dilutions were done in culture medium immediately before use. The final DMSO concentration in all samples was 0.25%. Compounds were added to cells one hour before LPS stimulation. […]

[2] = tested on: moderate to severe plaque-type psoriasis; test: Phase 2 randomized placebo-controlled study in moderate-to-severe psoriasis; assay type: in vivo, human
Method: This phase 2, multicenter, randomized, double-blind, placebo-controlled, parallel-group, dose-comparison study evaluated the efficacy and safety of Compound A in subjects with moderate to severe plaque-type psoriasis who were candidates for systemic therapy. This study included a 12-week treatment phase followed by a 4-week observational follow-up phase. A total of 260 subjects were randomized to receive Compound A 20 mg BID, Compound A 20 mg QD, or placebo for 12 weeks. The primary endpoint for this study was the proportion of subjects treated with Compound A who achieved a 75% reduction in Psoriasis Area and Severity Index score (“PASI-75”) at week 12/last treatment in reference to the baseline visit. Last treatment is defined as the last PASI assessment completed during the 12-week treatment phase.

[3] = 20 mg BID, week 12/last treatment

CCOc1cc(C(CS(C)(=O)=O)N2C(=O)c3cccc(NC(C)=O)c3C2=O)ccc1OC (single isomer, unassigned; (+)) [Compound A, (+)-2-[1-(3-ethoxy-4-methoxyphenyl)-2-methylsulfonylethyl]-4-acetylaminoisoindoline-1,3-dione]
IC50 [1]: 77 nM
psoriasis flare during the observational follow-up period ([2]; 20 mg BID group, 4-week follow-up): No subjects
study drug-related serious adverse events ([2]; 20 mg BID or 20 mg QD, 12 weeks): No study drug-related serious adverse events
mean decrease in PASI from baseline [2, 3]: 52%
proportion of subjects achieving PASI-50 [2, 3]: 57%
proportion of subjects achieving PASI-90 [2, 3]: 14%
proportion of subjects achieving PASI-75 ([2]; 20 mg BID, week 12/last treatment, P=0.023 vs placebo): 24%
tolerability and safety ([2]; 12 weeks of treatment): well tolerated and safe
